Source: the NIST ThermoML archive (doi:10.1016/j.jct.2016.07.023)
Numbers after ± are expanded uncertainties.

Settings: 303.15 K; 101.1 kPa; Crystal; flotation method

Structure (SMILES): Cc1cc(C(=O)O)ccc1[N+](=O)[O-] [3-methyl-4-nitrobenzoic acid]
- mass density: 1528.6 ± 2.7 kg/m3
